Among the data in ChEMBL document CHEMBL3045860, “The effect of sodium bicarbonate alone or in combination with a reduced dose of tebuconazole on the control of apple scab” (Crop Prot, 2006) are Activity values, retold here.

Holding throughout (assay type): organism-based
Settings in all cases: in vivo

Series [1] deals with Malus domestica. The series is described as follows: Phytotoxicity in Malus x domestica (apple) assessed as total soluble solid of harvested fruit at 0.025% by refractometric analysis (reference value: 14%).
Series [2] deals with Malus domestica. The series is described as follows: Phytotoxicity in Malus x domestica (apple) assessed as width of harvested fruit at 0.025% […] (reference value: 76 mm).
The subject of series [3] is Malus domestica. The series is described as follows: Phytotoxicity in Malus x domestica (apple) assessed as mass of harvested fruit at 0.025% […] (reference value: 181 g).
Series [4] concerns Malus domestica. Description: Phytotoxicity in Malus x domestica (apple) assessed as length of harvested fruit at 0.025% […] (reference value: 63.3 mm).

Turning to `CC(C)(C)C(O)(CCc1ccc(Cl)cc1)Cn1cncn1` (centres undefined) [TEBUCONAZOLE], the Activity was found to be 14.1% with Malus domestica [1], 80.3 mm with Malus domestica [2], 229 g in the series with Malus domestica [3] and 68 mm in the series with Malus domestica [4].
